Results taken from patent publication USRE48468E1, “Means and methods for counteracting muscle disorders” (BioMarin Technologies B.V., priority 2007, dated 2021).
Where a SMILES comes first, the peptide text is derived from it. The star is where a group is joined. Cbz = O=C(OCc1ccccc1)*

How the values were obtained:
DMD gene exon 45 = assay: Exon 45 skipping in control myotubes transfected with PS221 in presence of pentoxifylline (RT-PCR); assay type: cell-based, human; settings: 250 nM PS221, 0 to 0.5 mg/ml pentoxifylline, RNA 24 hrs after transfection
Description: (§1) A., B. Differentiated muscle cell cultures (myotubes) derived from a healthy control individual were transfected with 250 nM PS188 ([5′ […] 3′; SEQ ID NO:10] an AON optimized to specifically skip exon 44) or 250 nM PS221 ([5′ […] 3′; SEQ ID NO: 60] an AON optimized to specifically skip exon 45) in the presence of 0 to 0.5 mg/ml pentoxifylline, using the transfection reagent polymer UNIFectylin (2.0 μl UNIFectylin per μg AON in 0.15M NaCl). UNIFectylin interacts electrostatically with nucleic acids, provided that the nucleic acid is negatively charged (such as 2′-O-methyl phosphorothioate AONs). Pentoxyfillin (Sigma Aldrich) was dissolved in water. Total RNA was isolated 24 hrs after transfection in RNA-Bee solution (Campro Scientific, The Netherlands) according to the manufacturer's instructions. For cDNA synthesis with reverse transcriptase (Roche Diagnostics, The Netherlands), 500 ng of RNA was used in a 20 μl reaction at 55° C. for 30 min, reverse primed with DMD gene-specific primers. First PCRs were performed with outer primer sets, for 20 cycles of 94° C. (40 sec), 60° C. (40 sec), and 72° C. (60 sec). One μl of this reaction (diluted 1:10) was then re-amplified using nested primer combinations in the exons directly flanking exon 44 or 45, with 30 cycles of 94° C. (40 sec), 60° C. (40 sec), and 72° C. (60 sec). PCR products were analysed on 2% agarose gels. Skipping efficiencies were determined by quantification of PCR products using the DNA 1000 LabChip® Kit and the Agilent 2100 bioanalyzer (Agilent Technologies, The Netherlands).

[1] = test system: exon 23 of the dystrophin gene; assay: Exon 23 skipping in mdx mice treated with PS49 with or without pentoxyfilline (RT-PCR); assay type: in vivo
Description: In a pre-clinical study in mdx mice (animal model for DMD) the effect of adjunct compound pentoxyfilline on AON-induced exon skipping was assessed. Mdx mice (C57Bl/10ScSn-mdx/J) were obtained from Charles River Laboratories (The Netherlands). These mice are dystrophin-deficient due to a nonsense mutation in exon 23. AON-induced exon 23 skipping is therapeutic in mdx mice by removing the nonsense mutation and correction of the open reading frame. Two mdx mice per group were injected subcutaneously with: Group 1) pentoxyfilline (50 mg/kg, wk 1-2), Group 2) mouse-specific antisense oligonucleotide PS49 designed to specifically induce exon 23 skipping (100 mg/kg, wk 2 (2 times), Group 3) pentoxyfilline (50 mg/kg, wk 1-2)+PS49 (100 mg/kg, wk 2 (2 times). PS49 (5′ […] 3′) has a full-length phosphorothioate backbone and 2′O-methyl modified ribose molecules.
All mice were sacrificed at 1 week post-last-injection. Different muscles groups, including quadriceps, tibialis anterior, triceps and heart muscles were isolated and frozen in liquid nitrogen-cooled 2-methylbutane. […] PCR products were analysed on 2% agarose gels. Skipping efficiencies were determined by quantification of PCR products using the DNA 1000 LabChip® Kit and the Agilent 2100 bioanalyzer (Agilent Technologies, The Netherlands).

DMD gene exon 44 = assay: Exon 44 skipping in control myotubes transfected with PS188 in presence of pentoxifylline (RT-PCR); assay type: cell-based, human; settings: 250 nM PS188, 0 to 0.5 mg/ml pentoxifylline, RNA 24 hrs after transfection
Description: as §1

dystrophin = settings: mdx mice; variability among animals; cited from earlier work
[2] = test system: exon 23 of the dystrophin gene; assay: Exon 23 skipping in mdx mice treated with PS49 with or without prednisolone (RT-PCR); assay type: in vivo
Description: Two mdx mice per group were injected subcutaneously with: Group 1) physiologic salt (wk 1-8), Group 2) prednisolone (1 mg/kg, wk 1-8), Group 3) mouse-specific antisense oligonucleotide PS49 designed to specifically induce exon 23 skipping (100 mg/kg, wk 4 (5 times), week 5-8 (2 times), Group 4) prednisolone (1 mg/kg, wk 1-8)+PS49 (100 mg/kg, wk 4 (5 times), week 5-8 (2 times). PS49 (5′ [sequence] 3′) has a full-length phosphorothioate backbone and 2′O-methyl modified ribose molecules.
All mice were sacrificed at 1 week post-last-injection. Different muscles groups, including quadriceps, tibialis anterior, and diaphragm muscles were isolated and frozen in liquid nitrogen-cooled 2-methylbutane. For RT-PCR analysis, the muscle samples were homogenized in the RNA-Bee solution (Campro Scientific, The Netherlands). Total RNA was isolated and purified according to the manufacturer's instructions. For cDNA synthesis with reverse transcriptase (Roche Diagnostics, The Netherlands), 300 ng of RNA was used in a 20 μl reaction at 55° C. for 30 min, reverse primed with mouse DMD gene-specific primers. First PCRs were performed with outer primer sets, for 20 cycles of 94° C. […] PCR products were analysed on 2% agarose gels. Skipping efficiencies were determined by quantification of PCR products using the DNA 1000 LabChip® Kit and the Agilent 2100 bioanalyzer (Agilent Technologies, The Netherlands).

20S and 26S proteasomes = settings: read-out: Ki (proteasomal inhibitor); cited from earlier work
[3] = mdx mice, s.c., sacrificed 1 week post-last-injection

PS221: 5′ AUUCAAUGUUCUGACAACAGUUUGC 3′; SEQ ID NO: 60; an AON optimized to specifically skip exon 45 (chemistry not given here)
exon 45 skipping levels (DMD gene exon 45): increasing levels

CC(=O)CCCCn1c(=O)c2c(ncn2C)n(C)c1=O [pentoxifylline]
exon 23 skipping in muscles (RT-PCR) [1, 3]: No exon 23 skipping was observed | exon 23 skipping levels, PS49 plus pentoxyfilline (group 3) compared to PS49 only (group 2) ([1]; quadriceps, tibialis anterior, triceps, heart, pentoxyfilline 50 mg/kg wk 1-2, PS49 100 mg/kg): enhances exon 23 skipping levels | exon 45 skipping levels (DMD gene exon 45): enhances exon skipping levels | exon 45 skipping levels (DMD gene exon 45; listed as pentoxyfilline): enhanced | exon 44 skipping levels (DMD gene exon 44): enhances exon skipping levels | exon 44 skipping levels (DMD gene exon 44; listed as pentoxyfilline): enhanced

PS188: 5′ UCAGCUUCUGUUAGCCACUG 3′; SEQ ID NO:10; an AON optimized to specifically skip exon 44 (chemistry not given here)
exon 44 skipping levels (DMD gene exon 44): increasing levels

gentamicin
novel dystrophin expression, of normal level (dystrophin): up to 20%

C[C@]12C=CC(=O)C=C1CC[C@@H]1[C@@H]2[C@@H](O)C[C@@]2(C)[C@H]1CC[C@]2(O)C(=O)CO [prednisolone]
exon 23 skipping in muscles (RT-PCR) [2, 3]: No exon 23 skipping was observed | exon 23 skipping levels, PS49 plus prednisolone (group 4) compared to PS49 only (group 3) ([2]; quadriceps, tibialis anterior, diaphragm, prednisolone 1 mg/kg wk 1-8, PS49 100 mg/kg): enhances exon 23 skipping levels

CC(C)C[C@@H](C=O)NC(=O)[C@H](CC(C)C)NC(=O)[C@H](CC(C)C)NC(=O)OCc1ccccc1 [MG-132, CBZ-leucyl-leucyl-leucinal] (Cbz-Leu-Leu-Leu-aldehyde)
Ki (20S and 26S proteasomes): 4 nM
